Laboratory results as given in article PMC6916368, “Cell‐Based Optimization of Covalent Reversible Ketoamide Inhibitors Bridging the Unprimed to the Primed Site of the Proteasome β5 Subunit” (Chemmedchem, 2019).

Columns and labels:
Danio rerio embryos = assay: Danio rerio embryo toxicity assay (not dechorionated); type: in vivo
Method: Danio rerio embryo toxicity assay. Fish keeping protocols are approved by the Darmstadt administrative authority and documented. All fish were treated humanely. […] Embryos were decollated into separate wells containing a total volume of 200 μL and the inhibitor at the given concentration.

[1] = molecular target: T1, β2c subunit of isolated human 20S proteasome (Homo sapiens, UniProt Q99436); assay: Proteasome inhibition assay (20 S Proteasome Assay Kit, Bz‐VGR‐AMC); type: biochemical; conditions: c = 1 µM, n=1; read-out: Inhibition cCP β2
T1 construct: purchased Enzo Life Sciences
Summary of the method: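 Isolated 20S proteasome (200 ng/well) was preincubated 30 min with inhibitor, then Bz-VGR-AMC (100 μM final) was added for 60 min and fluorescence read. Single-point residual activity was taken at 100 nM or 1 μM; IC50 was fitted from duplicates, mean of three independent experiments.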

[2] = molecular target: T2, β5i subunit of isolated human 20S proteasome (Homo sapiens, UniProt P28062); assay: Proteasome inhibition assay (20 S Proteasome Assay Kit, Suc‐LLVY‐AMC); type: biochemical; conditions: for inhibition at 1 µM: c = 1 µM, n=1, read-out: Inhibition iCP β5; for inhibition at 0.1 µM: c=100 nM, read-out: Rel. Inhibition β5i; for IC50: purified proteasome
T2 construct: purchased Enzo Life Sciences
Summary of the method: (§1)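 Isolated human 20S proteasome (200 ng/well) preincubated 30 min with inhibitor, then 100 μM final Suc-LLVY-AMC (β5c, β5i) or Z-LLE-AMC (β1c) added for 60 min; fluorescence read. Residual activity at 100 nM final (n=3; β5c, β5i) or 1 μM (n=1, incl. β1c). IC50s: technical duplicates, mean of three experiments.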

[3] = molecular target: T3, β5c subunit of isolated human 20S proteasome (Homo sapiens, UniProt P28074); assay: as above; type: biochemical; conditions: for inhibition at 1 µM: c = 1 µM, n=1, read-out: Inhibition cCP β5; for inhibition at 0.1 µM: c=100 nM, read-out: Rel. Inhibition β5c; for IC50: purified proteasome; for Fold‐IC50 β5i/β5c: selectivity β5c over β5i
T3 construct: purchased Enzo Life Sciences
Summary of the method: as §1

THP‐1 cells [4] = type: cell-based
Method: (§2) Remarkably, in THP‐1 cells the initial cytotoxicity is increasing for 3 compared to 27 until 14 h treatment (9‐fold) but is approaching to the end of the assay.
(§3) Time‐dependent determination of cell viability. For the determination of time‐dependent cytotoxic activity 5.000 cells per well were plated in a white 384 well‐plate in RPMI‐1640 medium supplemented with 0.1 % FBS. Real‐Time Glo MT cell viability assay (Promega) and inhibitor were added to the final concentration and luminescence was determined using a Tecan M1000 microplate reader at the time points indicated (SI chapter 2b, Figure S9–S17, Table S2).

[5] = molecular target: T4, β1c subunit of isolated human 20S proteasome (Homo sapiens, UniProt P28072); assay: Proteasome inhibition assay (20 S Proteasome Assay Kit, Z‐LLE‐AMC); type: biochemical; conditions: c = 1 µM, n=1; read-out: Inhibition cCP β1
T4 construct: purchased Enzo Life Sciences
Summary of the method: as §1

MV4‐11 cells = assay: Cell viability endpoint assay (Celltiter Blue, 72 h); type: cell-based; conditions: Homo sapiens, MV4-11, mean±SD from two independent experiments
Summary of the method: (§4)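 Proteasome inhibitors were tested at 1 nM to 10 μM final on 50.000 cells/well in RPMI-1640 with 0.1 % FBS, plated overnight beforehand, at 37 °C and 5 % CO2. Reagent was incubated 120 minutes before the fluorescence read. IC50 came from a sigmoidal fit of technical triplicates, as the mean of two independent experiments.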

THP‐1 cells [6] = assay: as above; type: cell-based; conditions: Homo sapiens, mean±SD from two independent experiments
Summary of the method: as §4

Jurkat cells = assay: as above; type: cell-based; conditions: Homo sapiens, mean±SD from two independent experiments
Summary of the method: as §4

in vitro = type: cell-based; conditions: human
Method: as §2, §3

[7] = tested on: proteasome in MV4‐11 cells; assay: In‐cell determination of proteasome IC50 (conversion of substrate 30); type: cell-based; conditions: MV4-11, without pre‐incubation
Method: In‐cell determination of proteasome IC 50. […] Substrate was added to give a final concentration of 30 μM and substrate conversion was detected by fluorescence measurement over 100 min (assay validation) or 60 min (inhibition assays) using a Tecan M1000 microplate reader. Rate of fluorescence change over time was calculated, rates for negative (no‐cell) control was subtracted and normalized to positive control (no inhibitor).

Structure (SMILES)	Survival of embryos (not dechorionated) (Danio rerio embryos; 1 µM, 24 h) [%]	Survival of embryos (not dechorionated) (Danio rerio embryos; 1 µM, 48 h) [%]	Survival of embryos (not dechorionated) (Danio rerio embryos; 1 µM, 72 h) [%]	Survival of embryos (not dechorionated) (Danio rerio embryos; 1 µM, 96 h) [%]	Survival of embryos (not dechorionated) (Danio rerio embryos; 5 µM, 24 h) [%]	Survival of embryos (not dechorionated) (Danio rerio embryos; 5 µM, 48 h) [%]	Survival of embryos (not dechorionated) (Danio rerio embryos; 5 µM, 72 h) [%]	Survival of embryos (not dechorionated) (Danio rerio embryos; 5 µM, 96 h) [%]	Survival of embryos (not dechorionated) (Danio rerio embryos; 10 µM, 24 h) [%]	Survival of embryos (not dechorionated) (Danio rerio embryos; 10 µM, 48 h) [%]	Survival of embryos (not dechorionated) (Danio rerio embryos; 10 µM, 72 h) [%]	Survival of embryos (not dechorionated) (Danio rerio embryos; 10 µM, 96 h) [%]	Survival of embryos (not dechorionated) (Danio rerio embryos; 25 µM, 24 h) [%]	Survival of embryos (not dechorionated) (Danio rerio embryos; 25 µM, 48 h) [%]	Survival of embryos (not dechorionated) (Danio rerio embryos; 25 µM, 72 h) [%]	Survival of embryos (not dechorionated) (Danio rerio embryos; 25 µM, 96 h) [%]	inhibition at 1 µM [1] [%]	inhibition at 1 µM [2] [%]	inhibition at 0.1 µM [2] [%]	inhibition at 1 µM [3] [%]	also measured
CC(C)C[C@H](NC(=O)[C@H](CCc1ccccc1)NC(=O)CN1CCOCC1)C(=O)N[C@@H](Cc1ccccc1)C(=O)N[C@@H](CC(C)C)C(=O)[C@@]1(C)CO1 [Carfilzomib 3, Carfilzomib]	100	100	100	100	100	100	100	100	100	100	100	100	100	100	100	100	37	91	43	96	inhibition at 0.1 µM [3]: 86%; cytotoxicity of 3 compared to 27 (THP‐1 cells [4]): 9 fold; inhibition at 1 µM [5]: -18%; IC50 (MV4‐11 cells): 3.6 ± 1.8 nM; IC50 (THP‐1 cells [6]): 135 ± 39 nM; IC50 (Jurkat cells): 14 ± 3 nM; IC50 at 13 h (in vitro): 50 to 400 nM
Cc1ccc(NC(=O)C(=O)C(CC(C)C)NC(=O)C(CC(C)C)NC(=O)C(CC(C)C)NC(=O)OCc2ccccc2)c(C)c1 (stereo not drawn) [Compound 7, BSc4999]	100	100	100	100	100	100	100	100	100	100	100	100	80	80	80	80	9	74	33	92	IC50 [2]: 204 nM; inhibition at 0.1 µM [3]: 64%; IC50 [3]: 48 nM; Fold‐IC50 β5i/β5c [3]: 4.3; fold more potent than 9 (in-cell conversion of 30) [7]: 4 fold; inhibition at 1 µM [5]: -26%; IC50 (MV4‐11 cells): 19 ± 3 nM; IC50 (THP‐1 cells [6]): 24 ± 0.1 nM; IC50 (Jurkat cells): 30 ± 0.3 nM
CC(C)C[C@H](NC(=O)OCc1ccccc1)C(=O)N[C@@H](CC(C)C)C(=O)N[C@@H](CC(C)C)C(=O)C(=O)Nc1cccc(Oc2ccccc2)c1 [Compound 9, Benzyl‐((S)‐4‐methyl‐1‐(((S)‐4‐methyl‐1‐(((S)‐5‐methyl‐1,2‐dioxo‐1‐((3‐phenoxyphenyl)‐amino)hexan‐3‐yl)amino)‐1‐oxopentan‐2‐yl)amino)‐1‐oxopentan‐2‐yl)carbamate]	100	100	100	100	100	100	100	100	100	100	100	100	100	100	100	100	9	31	23	81	IC50 [2]: 170 nM; inhibition at 0.1 µM [3]: 56%; IC50 [3]: 66 nM; Fold‐IC50 β5i/β5c [3]: 2.6; inhibition at 1 µM [5]: 0%; IC50 (MV4‐11 cells): 18 ± 3 nM; IC50 (THP‐1 cells [6]): 30 ± 10 nM; IC50 (Jurkat cells): 24 ± 4 nM
